# Experimental data as given in publication PMC7356761 (Molecules, 2020).
# Experiments:
# [1] = test system: H3255 cells (EGFR L858R); test: Cell viability assay (WST-8), H3255; format: cell-based; settings: Homo sapiens, NCI-H3255, WST-8, 48 h
# [2] = test system: H1975 cells (EGFR L858R/T790M); design: method as in PMID 27827863; settings: previous study ref 25; cited from earlier work
# [3] = test system: H441 cells (wild-type EGFR); test: Cell viability assay (WST-8), H441; settings: WST-8, 48 h
# [4] = target: EGFR-TK with L858R/T790M mutation (Homo sapiens, UniProt P00533, L858R/T790M); test: EGFR-TK inhibition assay (ADP-Glo), L858R/T790M; format: biochemical
# [5] = target: wild-type EGFR-TK (Homo sapiens, UniProt P00533); test: EGFR-TK inhibition assay (ADP-Glo), wild-type; format: biochemical; settings: EGFR tyrosine kinase wild-type; read-out: IC50 Value, Wild-Type (WT)
IC50 [1] [nM],IC50 [3] [nM],IC50 ([4]; EGFR tyrosine kinase L858R/T790M) [nM],"SI (WT: L858R/T790M) ([4]; selectivity index, wild-type IC50 to L858R/T790M IC50)",IC50 [5] [nM],Compound,IC50 [2] [nM]
150 ± 20,260 ± 40,–,–,–,"C=CC(=O)Nc1cccc(Nc2nc(Nc3ccc(N4CCN(C(C)=O)CC4)cc3OC)ncc2C(F)(F)F)c1 [CO-1686, Rociletinib, reference compound]",137
500 ± 210,1840 ± 440,310 ± 150,>32,> 10000,"C=CC(=O)Nc1cc(I)cc(Nc2nc(Nc3ccc(N4CCN(C(C)=O)CC4)cc3OC)ncc2C(F)(F)F)c1 [compound 10, N-(3-{[2-({4-[4-acetylpiperazin-1-yl]-2-methoxyphenyl}amino)-5-(trifluoromethyl)pyrimidin-4-yl]amino}-5-iodophenyl)acrylamide]",–
